Values of other authors in article PMC8231113, “Protein Secondary Structure Affects Glycan Clustering in Native Mass Spectrometry” (Life, 2021).
pKd: −log10 of the molar value.

Tests used:
[1] = target: wildtype GII.4 Saga P dimer; conditions: read-out: KD, result from NMR; cited from earlier work
[2] = tested on: deamidated GII.4 Saga P dimer; parameters: method as in PMID 30899001, PMID 30071731; conditions: NMR and HDX MS; cited from earlier work
hNoV P dimers = tested on: hNoV P dimers; parameters: method as in PMID 22170811, PMID 30899001; conditions: cited from earlier work

Row | Structure (SMILES) | pKd [1] | reduction of glycan binding affinity of deamidated P dimer compared to the wildtype [2] | binding to hNoV (hNoV P dimers)
1 | C[C@H](O)[C@@H](O)[C@@H](O)[C@H](O)C=O [fucose] | 1.66 | roughly by an order of magnitude | 
2 | O=C[C@@H](O)[C@H](O)[C@H](O)[C@@H](O)CO [L-galactose] |  |  | known not to bind
3 | C[C@@H]1O[C@@H](O[C@H]2C(O)O[C@H](CO)[C@H](O)[C@@H]2O[C@H]2O[C@H](CO)[C@H](O)[C@H](O)[C@H]2O)[C@@H](O)[C@H](O)[C@@H]1O (some centres unmarked) [B trisaccharide] | 2.17 | roughly by an order of magnitude | 
